Results taken from patent US11786498B2, “Sacubitril calcium salts” (Novartis AG, priority 2015, dated 2023).
Where a name gives a salt, the structure may show the parent alone. One block for each molecule: values may come before it.

What was measured:
Format in all cases: physicochemical
[1] = Water uptake / hygroscopicity at relative humidity (sorption-desorption)
[2] = Solvent loss as a function of temperature as measured by TG/DTA
Protocol: (ii) Thermogravimetric/Differential Thermal Analysis (TG/DTA)
Differential scanning calorimetry was conducted for each crystalline form using a Seiko TG/DTA Instrument. For each analysis, the DSC cell/sample chamber was purged with 100 mL/min of ultra-high purity nitrogengas. The instrument was calibrated with high purity indium. The heating rate was 10° C. per minute in the temperature range between 25 and 300° C. The heat flow, which was normalized by sample weight, was plotted versus the measured sample temperature. The data were reported in units of watts/gram (“W/g”). The plot was made with the endothermic peaks pointing down. The endothermic melt peak (melting point) was evaluated for extrapolated onset temperature.

[3] = Solid form stability on wet granulation, equilibration, humidity exposure, compression, grinding (XRPD); conditions: for form change on wet granulation: wet granulation (with water)
Protocol: (i) X-Ray Powder Diffraction (XRPD) The X-ray powder diffraction pattern was determined using a Scintag XDS 2000 diffractometer instrument. The X-ray diffraction pattern was recorded between 2° and 35° (2θ) with CuK radiation (45 kV, 40 mA). The measurements were performed at about 45 kV and 40 mA under the following conditions: • Scan rate: 0.5° (20)/min • Chopper increment: 0.02° • Slits (from left to right): 2, 3, 0.3, 0.2 mm

Flowability of the solid = experiment: Flowability of the solid

- hygroscopicity (in words) [1]: hygroscopic
- water uptake ([1]; at 95% RH): 13.8%
SMILES: CCOC(=O)[C@H](C)CC(Cc1ccc(-c2ccccc2)cc1)NC(=O)CCC(=O)O (stereo partly drawn) [Modification A, calcium salt of N-(3-carboxyl-1-oxopropyl)-(4S)-(p-phenylphenylmethyl)-4-amino-(2R)-methyl butanoic acid ethyl ester]

- hygroscopicity (in words) [1]: only slightly hygroscopic
- water uptake, maximum reached ([1]; can reach up to): up to 11%
- hygroscopicity (water uptake) under typical humidity levels ([1]; up to 75% RH): < 2%
- thermal stability [2]: thermally stable up to its melting point
- form change on equilibration in solvent ([3]; equilibration in water or ethanol/water 1:1): Hydrate formation was observed
- form change on wet granulation [3]: Hydrate formation was observed
SMILES: CCOC(=O)[C@H](C)CC(Cc1ccc(-c2ccccc2)cc1)NC(=O)CCC(=O)O (stereo partly drawn) [Modification B, calcium salt of N-(3-carboxyl-1-oxopropyl)-(4S)-(p-phenylphenylmethyl)-4-amino-(2R)-methyl butanoic acid ethyl ester]

- behaviour at humidity (in words) ([1]; 25° C., relative humidity from 0% to 80%): remains dry
- water uptake ([1]; at 95% RH): 2.0%
- form retention during take-up and release of water ([1]; sorption-desorption experiments): retained
- water levels as obtained [2]: 1.4-4.1%
- Loss on drying (LOD) ([2]; TG/DTA, 10° C./min, nitrogen, listed as HB): 3.4%
- temperature required for complete dehydration ([2]; heating): above 97 °C
- flowability (Flowability of the solid): good flowability properties
SMILES: CCOC(=O)[C@H](C)CC(Cc1ccc(-c2ccccc2)cc1)NC(=O)CCC(=O)O (stereo partly drawn) [Modification HB, calcium salt of N-(3-carboxyl-1-oxopropyl)-(4S)-(p-phenylphenylmethyl)-4-amino-(2R)-methyl butanoic acid ethyl ester]

- water uptake ([1]; at 80% RH): 15.2%
- form change on exposure to elevated humidity ([3]; >75% RH): turns into a crystalline hydrate
- form change after compression ([3]; compression for 5 min at 10 t, XRPD): No change of the amorphous form
- form change after grinding ([3]; grinding, XRPD): No change of the amorphous form
- form change on wet granulation [3]: rapidly leads to hydrate formation
SMILES: CCOC(=O)[C@H](C)CC(Cc1ccc(-c2ccccc2)cc1)NC(=O)CCC(=O)O (stereo partly drawn) [amorphous AHU377 calcium salt, calcium salt of N-(3-carboxyl-1-oxopropyl)-(4S)-(p-phenylphenylmethyl)-4-amino-(2R)-methyl butanoic acid ethyl ester]
